In patent US6924288B2, “Enantiomerically pure opioid diarylmethylpiperzine and methods of using same” (priority 2001, dated 2005):

Tests used:
μ opioid receptor = target: T1, μ opioid receptor (Rattus norvegicus, UniProt P33535); test: Radioligand binding, [3H]DAMGO competition, rat brain membranes; details: rat brain membranes, [3H]DAMGO; read-out: Rat Brain Membrane K1 (nM) μ
T1 construct: tissue Pel-Freeze Biological Inc. (Rogers, Ark.); host or cells: rat whole brain membranes
Description: (§1) Two stereoisomerically related racemic mixtures and inclusive enantiomers were evaluated for in vitro opioid receptor affinity in rat brain membranes (μ and δ opioid) and guinea pig cerebellum (κ opioid receptor). Membranes for radioligand binding were prepared from either rat whole brain or guinea pig cerebellum, supplied by Pel-Freeze Biological Inc. (Rogers, Ark.). Tissues were homogenized in 50 mM TRIS (Tris[hydrooxymethyl]aminomethane) buffer (pH 7.4) containing 50 ug/ml soybean trypsin inhibitor, 1 mM EDTA (Ethylenediaminetetraacetic acid), and 100 μM PMSF (Phenylmethylsulfonyl fluoride). The homogenized brain tissues were centrifuged at 500×g for 30 minutes (4° C.) to remove large debris. The supernatant was polytronically sonicated for 10 seconds (P.E. setting of 2, 4° C.). Sucrose solution was then added to a final concentration of 0.35 M using a 10 mM TRIS-Sucrose buffer (pH 7.4) and the brain membranes were then centrifuged at 40,000×g for 30 minutes (4° C.). The membrane pellets were then washed twice in 10 mM TRIS buffer (pH 7.4) containing 50 μg/ml soybean trypsin inhibitor, 1 mM EDTA, and 100 μM PMSF.
(§2) Radioligand binding assays were performed in 10 mM TRIS buffer (pH 7.4) containing 50 μg/ml soybean trypsin inhibitor, 1 mM EDTA, 5 mM MgCl2, and 100 μM PMSF. Tritium-labeled DAMGO (μ), Deltorphin II (δ), or U69593 (κ) purchased from New England Nuclear were used as ligands in competitive experiments (2-3×10^−10 M final concentrations) with non-specific binding defined by 0.5×10^−6 M Naloxone (purchased from SIGMA Chemical Co.). All binding assays were run at room temperature for 90 minutes and then terminated by rapid filtration on GF/C glass fiber filters (Whatman, Hillsboro, Oreg.) with 50 mM TRIS buffer (4° C., pH 7.4) employing a Brandel Semi-automatic Cell Harvester (Model M48, Brandel, Gaithersburg, Md.). The filters were washed twice with 50 mM TRIS buffer (4° C., pH 7.4) and the filters were placed in liquid scintillation cocktail and the bound radioactivity counted on a Beckman LS 6500 scintillation counter. The potency of the compounds in inhibiting the binding of radiolabelled DAMGO (μ), Deltorphin II (δ), or U69593 (κ) was determined from full concentration-effect curves. With the computer program Prism (GraphPad Software Inc., San Diego, Calif.) the IC50 values were determined using a one-site nonlinear regression analysis of the radioligand binding data. The IC50 values were then converted to Ki values using the Cheng-Prusoff equation. (Cheng Y and Prusoff W H (1973) Relationship between the inhibition constant (K1) and the concentration of inhibitor which causes 50 percent inhibition (I50) of a enzymatic reaction. Biochem Pharm 22:3099-3108.)

δ opioid receptor = target: T2, δ opioid receptor (Rattus norvegicus, UniProt P33533); test: Radioligand binding, [3H]Deltorphin II competition, rat brain membranes; details: read-out: Rat Brain Membrane K1 (nM) δ
T2 construct: tissue Pel-Freeze Biological Inc. (Rogers, Ark.); host or cells: rat whole brain membranes
Description: as §1, §2

κ opioid receptor = target: T3, κ opioid receptor (Cavia porcellus, UniProt P41144); test: Radioligand binding, [3H]U69593 competition, guinea pig cerebellum membranes; details: read-out: Guinea Pig Brain Membrane K1 (nM) κ
T3 construct: tissue Pel-Freeze Biological Inc. (Rogers, Ark.); host or cells: guinea pig cerebellum membranes
Description: as §1, §2

[1] = target: T4, Mu receptor, mouse vas deferens (Mus musculus, UniProt P42866); test: Mouse vas deferens, inhibition of electrically induced contractions, mu (with TIPP and nor-BNI); format: cell-based; details: in presence of 3 μM TIPP and 15 nM nor-BNI; read-out: Mouse Vas Deferens ED50 (nM) μ
T4 construct: Mouse vasa deferentia (MVD), CD-1 strain, Harlan, Raleigh, N.C.) were removed from mice; tissue Harlan, Raleigh, N.C; (animals); host or cells: mouse vas deferens, CD-1 strain

[2] = target: T5, Delta receptor, mouse vas deferens (Mus musculus, UniProt P32300); test: Mouse vas deferens, inhibition of electrically induced contractions, delta; format: cell-based; details: read-out: Mouse Vas Deferens ED50 (nM) δ
T5 construct: Mouse vasa deferentia (MVD), CD-1 strain, Harlan, Raleigh, N.C.) were removed from mice; tissue Harlan, Raleigh, N.C; (animals); host or cells: mouse vas deferens, CD-1 strain
Description: The compound of formula (I) and compounds 1, 3, 4, 5 and 6 as identified above, were evaluated for in vitro opioid receptor activity in various receptor systems, including mouse vas deferens (Mouse Vas Deferens ED50), and guinea pig ileum (Guinea Pig Ileum ED50). The assay procedures used for such determinations of receptor activity are set out below.
In vitro bioassays: Mouse vasa deferentia (MVD), CD-1 strain, Harlan, Raleigh, N.C.) were removed from mice and suspended between platinum electrodes with 0.5 g of tension in organ bath chambers containing a modified Mg^++ free Krebs buffer of the following composition (millimolar): NaCl, 117.5; KCl, 4.75; CaCl2, 2.6; KH2PO4, 1.20; NaHCO3, 24.5; and glucose, 11. The buffer was saturated with 95% O2/5% CO2 and kept at 37° C. Tissues were stimulated at supramaximal voltage with 10-Hz pulse trains for 400-msec.; train interval 10 seconds; and 1.0 msec pulse duration at maximal voltage. Delta receptor activity was determined by adding appropriate concentrations of test compound to organ baths and allowing a maximal response before addition of the next higher concentration.
The ED50 values were extrapolated from curves showing the dose concentration plotted against the response (J. A. H. Lord, A. A. Waterfield, J. Hughes, H. W. Kosterlitz, Nature 267, 495, (1977)).

rats [3] = test: Tail pinch test for analgesia in rats; format: in vivo; details: rat; for Analgesia (delay of response to tail pinch): 0.30 mg/kg i.v., cutoff 20 sec; for ED50: intravenous, 20 sec cutoff; for ED50 / Analgesic effect in words: tail pinch; for Analgesic effect in words: i.v., FIGS. 1-6
Description: (§3) Analgesia was assayed in rats using the tail pinch test with simultaneous monitoring of capillary blood gases (pCO2). During this testing period respiratory depression values were also obtained. Male rats (Wistar Hannover 200-300 g) were anesthetized with 2% isoflurane (J. A. Webster, Inc., Sterling, Mass. The femoral artery was cannulated with PE50 tubing for blood sampling. The external jugular vein was also cannulated with Silastic tubing for drug injection. After surgery, anesthetic gases were removed and the rat was allowed to rest in a plastic restrainer for 60 minutes to establish baseline values of blood gases.
(§4) The compounds 1-6 were administered intravenous. Nociceptive response and respiratory values were obtained for a 1-2 hour period. The femoral artery cannulation was used to draw arterial blood into a syringe pre-wetted with heparin. Samples were then analyzed with a blood gas analyzer (Ph/Gas Analyzer Synthesis 25 Model, Instrumentation Laboratory) to assess respiratory depression effects. The volume of blood taken each time was 0.15 cc. The syringes were capped immediately and the blood gases analyzed within 5 minutes. The blood exposed to air at the tip of the syringe was expelled. The blood was mixed by gentle inversion and an aliquots of 0.10 cc was injected into the blood gas analyzer.
An artery clamp was placed on the tail (one inch from the tip of the tail) for a short duration until an escape response occurred (i.e. tail-flick or vocalization). The escape response latency was recorded by means of a stopwatch. A cutoff time of 20 sec. was used to prevent unnecessary tissue damage. […] The elapsed time to elicit a pain response was recorded as the tail pinch latency in seconds. Blood gases were monitored at approximately the same time points as the tail pinch test.
(§5) The ED50 values for analgesia potency and respiratory depression were determined to calculate the safety or therapeutic ratio, which is defined as the respiratory depression ED50 divided by analgesia ED50.

[4] = Respiratory depression by blood gas (pCO2) monitoring in rats; format: in vivo; details: male, Wistar Hannover, in vivo; rat, intravenous
Description: as §3, §4
(§6) The gas analyzer was well maintained and operated. Calibrations (low, normal and high) were done at the beginning of every day of testing. The sample lines, co-oximeter and the blood gas electrode were cleaned regularly at the end of every day of testing. Hematocrit calibration (high and low) was scheduled on a weekly basis and tubing, sample and pinch valve were replaced on a monthly basis.
as §5

rats [5] = test: as above; format: in vivo; details: rat; for Respiratory Depression % Units Baseline pCO2: 0.30 mg/kg i.v.; for Safety Ratio (respiratory depression ED50 divided by analgesia ED50): intravenous; for Mortality due to respiratory depression / Effect on blood pCO2 levels in words: i.v.
Description: as §3, §4, §6, §5

Row | Compound | Ki (μ opioid receptor) | Ki (δ opioid receptor) | Ki (κ opioid receptor) | EC50 [1] | EC50 [2] | Analgesia (delay of response to tail pinch) (rats [3]; 4 min.) | Analgesia (delay of response to tail pinch) (rats [3]; 8 min.) | Analgesia (delay of response to tail pinch) (rats [3]; 32 min.) | ED50 (rats [3]) | ED50 [4] | Respiratory Depression % Units Baseline pCO2 (rats [5]; 4 min.) | Respiratory Depression % Units Baseline pCO2 (rats [5]; 8 min.) | Respiratory Depression % Units Baseline pCO2 (rats [5]; 32 min.) | Safety Ratio (respiratory depression ED50 divided by analgesia ED50) (rats [5]) | Mortality due to respiratory depression (rats [5]) | Analgesic effect in words (rats [3]) | Effect on blood pCO2 levels in words (rats [5])
1 | C=CCN1C[C@@H](C)N([C@@H](c2ccsc2)c2cccc(O)c2)C[C@@H]1C (racemic) [Compound 1, (±)3-((R*)-((2R*,5S*)-4-allyl-2,5-dimethyl-1-piperazinyl)(3-thienyl)methyl)phenol] | 0.36 nM | 1.29 nM | 1.67 nM | 881 nM | 30 nM | 19.5 s | 10.5 s | 1 s | 0.21 mg/kg | 0.98 mg/kg | 21% | 25% | 7% | 4.7 | – | – | –
2 | C=CCN1C[C@H](C)N([C@@H](c2ccsc2)c2cccc(O)c2)C[C@H]1C (racemic) [Compound 4, (±)3-((R*)-((2S*,5R*)-4-allyl-2,5-dimethyl-1-piperazinyl)(3-thienyl)methyl)phenol] | 0.18 nM | 14.9 nM | 2.34 nM | 170 nM | 58 nM | 20 s | 20 s | 10 s | 0.05 mg/kg | 0.12 mg/kg | 117% | 91% | 43% | 2.4 | several of the test subjects died | – | –
3 | C=CCN1C[C@@H](C)N([C@@H](c2ccsc2)c2cccc(O)c2)C[C@@H]1C (relative stereo) [Compound 1, (±)3-((R*)-((2R*,5S*)-4-allyl-2,5-dimethyl-1-piperazinyl)(3-thienyl)methyl)phenol] | – | – | – | – | – | – | – | – | – | – | – | – | – | – | – | only limited analgesia for a short time | –
4 | C=CCN1C[C@@H](C)N([C@@H](c2ccsc2)c2cccc(O)c2)C[C@@H]1C [Compound 3, (+)3-((R)-((2R,5S)-4-allyl-2,5-dimethyl-1-piperazinyl)(3-thienyl)methyl)phenol] | 658 nM | 744 nM | 100 nM | > 1000 nM | > 1000 nM | 0 s | 0 s | 0 s | > 6 mg/kg | > 6 mg/kg | 0% | 0% | 0% | – | – | no measurable analgesic effect | no effect on blood pCO2 levels
5 | C=CCN1C[C@H](C)N([C@@H](c2ccsc2)c2cccc(O)c2)C[C@H]1C [Compound 5, (+)-3-((R)-((2S,5R)-4-allyl-2,5-dimethyl-1-piperazinyl)(3-thienyl)methyl)phenol] | 0.75 nM | 113 nM | 1.73 nM | 79.3 nM | 1.3 nM | 20 s | 20 s | 20 s | 0.03 mg/kg | 0.067 mg/kg | 120% | 78% | 45% | 2.2 | several of the test subjects died | – | –
6 | C=CCN1C[C@@H](C)N([C@H](c2ccsc2)c2cccc(O)c2)C[C@@H]1C [Compound 6, (−)3-((S)-((2R,5S)-4-allyl-2,5-dimethyl-1-piperazinyl)(3-thienyl)methyl)phenol] | 60 nM | 13 nM | 16 nM | > 1000 nM | 282 nM | 0 s | 0 s | 0 s | > 6 mg/kg | > 6 mg/kg | 0% | 0% | 0% | – | – | no measurable analgesic effect | no effect on blood pCO2 levels
